Measurements from patent publication US8569493B2 (Santen Pharmaceutical Co., Ltd., priority 2007, dated 2013).

Molecular target: T1, Recombinant human GR (Homo sapiens, UniProt P04150)
T1 construct: purchased Invitrogen P2816
T1 sequence (P04150 1-777): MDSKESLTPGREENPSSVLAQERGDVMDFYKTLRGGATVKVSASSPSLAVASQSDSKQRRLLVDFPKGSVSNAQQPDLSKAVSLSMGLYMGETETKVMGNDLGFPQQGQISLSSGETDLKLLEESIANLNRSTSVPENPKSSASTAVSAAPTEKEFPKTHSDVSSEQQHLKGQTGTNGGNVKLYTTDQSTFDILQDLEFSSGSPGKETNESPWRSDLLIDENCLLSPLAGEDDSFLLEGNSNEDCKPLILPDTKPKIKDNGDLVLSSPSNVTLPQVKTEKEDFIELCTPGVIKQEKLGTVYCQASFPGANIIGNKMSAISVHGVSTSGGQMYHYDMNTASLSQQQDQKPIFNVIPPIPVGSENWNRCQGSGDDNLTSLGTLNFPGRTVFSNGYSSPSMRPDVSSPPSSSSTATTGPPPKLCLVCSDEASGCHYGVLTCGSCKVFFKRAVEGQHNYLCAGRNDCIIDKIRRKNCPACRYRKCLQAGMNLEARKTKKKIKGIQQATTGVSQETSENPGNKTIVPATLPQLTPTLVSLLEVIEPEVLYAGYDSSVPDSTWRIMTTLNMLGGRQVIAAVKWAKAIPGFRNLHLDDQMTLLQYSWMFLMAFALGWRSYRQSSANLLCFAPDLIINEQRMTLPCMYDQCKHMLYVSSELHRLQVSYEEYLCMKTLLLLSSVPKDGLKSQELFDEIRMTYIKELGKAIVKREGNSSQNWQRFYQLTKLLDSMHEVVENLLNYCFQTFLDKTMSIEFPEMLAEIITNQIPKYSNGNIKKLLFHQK
Assay: GR competitor assay by fluorescence polarization (binding activity to glucocorticoid receptor)
Conditions: 20 μM test compound solution, 10 μL per well plus 5 μL 4×GS1 and 5 μL 4×GR; 2 to 4 hours at room temperature; ratio of 100% or more is indicated by 100%
Method: 1. Evaluation Test for Binding Activity to Glucocorticoid Receptor (hereinafter referred to as “GR”)
In order to evaluate a binding activity to GR, a receptor competitor assay was carried out by a fluorescence polarization method. In the assay, a GR competitor assay kit (manufactured by Invitrogen, cat No. P2816) was used, and a procedure was carried out according to the protocol attached to the kit. Hereinafter, the specific method will be described.
(Preparation of Reagents)
GR screening buffer: A buffer containing 10 mM potassium phosphate (pH 7.4), 20 mM sodium molybdate (Na2MoO4), 0.1 mM ethylene diamine tetraacetic acid (EDTA), 5 mM dithiothreitol (DTT), 0.1 mM stabilizing peptide and 2% dimethylsulfoxide was prepared.
4×GS1 solution: Fluormone™ GS1, which is a fluorescent glucocorticoid ligand, was diluted with GR screening buffer, whereby a 4 nM solution was prepared.
4×GR solution: Recombinant human GR was diluted with GR screening buffer, whereby a 16 nM solution was prepared.
(Preparation of Test Compound Solution)
After a test compound was dissolved in dimethylsulfoxide, it was diluted with GR screening buffer, whereby a 20 μM test compound solution was prepared.
(Test Method and Measurement Method)
1) The test compound solution was added in an amount of 10 μL into each well of a 384-well plate, and then, 4×GS1 solution and 4×GR solution were added in an amount of 5 μL into each well, respectively.
2) The plate was incubated in a dark place at room temperature for 2 to 4 hours.
3) By using a multimode plate reader, Analyst™ HT (manufactured by LJL Biosystems), fluorescence polarization of each well was measured. As the blank, a well containing GR screening buffer in place of the test compound and 4×GS1 solution was used.
4) The same procedure as that in the above 1) to 3) was carried out except that GR screening buffer was used in place of the test compound solution, and the obtained result was taken as the negative control.
5) The same procedure as that in the above 1) to 3) was carried out except that 2 mM dexamethasone was used in place of the test compound solution, and the obtained result was taken as the positive control.
(Calculation Equation of GR Binding Ratio)
A GR binding ratio (%) was calculated from the following equation. GR binding ratio(%)=100×[1−(fluorescence polarization of test compound solution−fluorescence polarization of positive control solution)/(fluorescence polarization of negative control solution−fluorescence polarization of positive control solution)] (Test Results and Discussion)

| SMILES | inhibition at 10 µM [%] |
| --- | --- |
| CCCS(=O)(=O)Oc1ccc(-c2ccc3c(c2COc2cc([N+](=O)[O-])ccc2OC)N(C)C(=O)C(C)(C)N3)c(OC)c1 [Compound 1-44] | 93 |
| COc1cc(OS(=O)(=O)C2CC2)ccc1-c1ccc2c(c1COc1cc([N+](=O)[O-])ccc1C)N(C)C(=O)C(C)(C)N2 [Compound 1-45] | 94 |
| COc1cc(OS(=O)(=O)CCC(F)(F)F)ccc1-c1ccc2c(c1COc1cc([N+](=O)[O-])ccc1C)N(C)C(=O)C(C)(C)N2 [Compound 1-46] | 95 |
| COc1cc(OS(=O)(=O)C2CCCC2)ccc1-c1ccc2c(c1COc1cc([N+](=O)[O-])ccc1C)N(C)C(=O)C(C)(C)N2 [Compound 1-50] | 98 |
| COc1cc(OS(=O)(=O)CCCCl)ccc1-c1ccc2c(c1COc1cc(F)ccc1C)N(C)C(=O)C(C)(C)N2 [Compound 1-54, 7-[4-(3-chloropropylsulfonyloxy)-2-methoxyphenyl]-8-(5-fluoro-2-methylphenoxymethyl)-1,3,3-trimethyl-3,4-dihydro-1H-quinoxalin-2-one] | 99 |
| COc1cc(OS(=O)(=O)C2CCCC2)ccc1-c1ccc2c(c1CNc1cc(F)ccc1C)N(C)C(=O)C(C)(C)N2 [Compound 1-57] | 93 |
| CCCS(=O)(=O)Oc1ccc(-c2ccc3c(c2CNc2cc(F)ccc2C)N(C)C(=O)C(C)(C)N3)c(OC)c1 [Compound 1-58] | 100 |
| COc1ccccc1NCc1c(-c2ccc(OS(C)(=O)=O)cc2OC)ccc2c1N(C)C(=O)C(C)(C)N2 [Compound 2-1, 7-(2-Methoxy-4-methylsulfonyloxyphenyl)-8-(2-methoxyphenylaminomethyl)-1,3,3-trimethyl-3,4-dihydro-1H-quinoxalin-2-one] | 95 |
| COc1ccccc1NCc1c(-c2ccc(OS(=O)(=O)c3ccccc3)cc2OC)ccc2c1N(C)C(=O)C(C)(C)N2 [Compound 2-2, 8-(2-Methoxyphenylaminomethyl)-7-(2-methoxy-4-phenylsulfonyloxyphenyl)-1,3,3-trimethyl-3,4-dihydro-1H-quinoxalin-2-one] | 89 |
| COc1ccccc1NCc1c(-c2ccc(OS(=O)(=O)C3CC3)cc2OC)ccc2c1N(C)C(=O)C(C)(C)N2 [Compound 2-3] | 93 |
| COc1ccccc1NCc1c(-c2ccc(OS(=O)(=O)CCC(F)(F)F)cc2OC)ccc2c1N(C)C(=O)C(C)(C)N2 [Compound 2-4, 8-(2-Methoxyphenylaminomethyl)-7-[2-methoxy-4-(3,3,3-trifluoropropylsulfonyloxy)phenyl]-1,3,3-trimethyl-3,4-dihydro-1H-quinoxalin-2-one] | 91 |
| COc1ccccc1NCc1c(-c2ccc(OS(=O)(=O)CC(C)C)cc2OC)ccc2c1N(C)C(=O)C(C)(C)N2 [Compound 2-5, 7-(4-Isobutylsulfonyloxy-2-methoxyphenyl)-8-(2-methoxyphenylaminomethyl)-1,3,3-trimethyl-3,4-dihydro-1H-quinoxalin-2-one] | 97 |
| COc1ccccc1NCc1c(-c2ccc(OS(=O)(=O)C(C)C)cc2OC)ccc2c1N(C)C(=O)C(C)(C)N2 [Compound 2-6, 7-(4-Isopropylsulfonyloxy-2-methoxyphenyl)-8-(2-methoxyphenylaminomethyl)-1,3,3-trimethyl-3,4-dihydro-1H-quinoxalin-2-one] | 100 |
| COc1ccccc1NCc1c(-c2ccc(OS(=O)(=O)C3CCCC3)cc2OC)ccc2c1N(C)C(=O)C(C)(C)N2 [Compound 2-7, 7-(4-Cyclopentylsulfonyloxy-2-methoxyphenyl)-8-(2-methoxyphenylaminomethyl)-1,3,3-trimethyl-3,4-dihydro-1H-quinoxalin-2-one] | 99 |
| CCCS(=O)(=O)Oc1ccc(-c2ccc3c(c2CNc2ccccc2OC)N(C)C(=O)C(C)(C)N3)c(OC)c1 [Compound 2-8, 8-(2-Methoxyphenylaminomethyl)-7-(2-methoxy-4-propylsulfonyloxyphenyl)-1,3,3-trimethyl-3,4-dihydro-1H-quinoxalin-2-one] | 98 |
| COc1cc(OS(=O)(=O)CCCNCc2ccccc2)ccc1-c1ccc2c(c1COc1cc(F)ccc1C)N(C)C(=O)C(C)(C)N2 [Compound 3-1, 7-[4-(3-Benzylaminopropylsulfonyloxy)-2-methoxyphenyl]-8-(5-fluoro-2-methylphenoxymethyl)-1,3,3-trimethyl-3,4-dihydro-1H-quinoxalin-2-one] | 94 |
| CCCNCCCS(=O)(=O)Oc1ccc(-c2ccc3c(c2COc2cc(F)ccc2C)N(C)C(=O)C(C)(C)N3)c(OC)c1 [Compound 3-2, 8-(5-Fluoro-2-methylphenoxymethyl)-7-[2-methoxy-4-(3-propylaminopropylsulfonyloxy)phenyl]-1,3,3-trimethyl-3,4-dihydro-1H-quinoxalin-2-one] | 100 |
| COc1cc(OS(=O)(=O)CCCN2CCOCC2)ccc1-c1ccc2c(c1COc1cc(F)ccc1C)N(C)C(=O)C(C)(C)N2 [Compound 3-3, 8-(5-Fluoro-2-methylphenoxymethyl)-7-[2-methoxy-4-[3-(morpholin-4-yl)propylsulfonyloxy]phenyl]-1,3,3-trimethyl-3,4-dihydro-1H-quinoxalin-2-one] | 100 |
| COc1cc(OS(=O)(=O)CCCN2CCCCC2)ccc1-c1ccc2c(c1COc1cc(F)ccc1C)N(C)C(=O)C(C)(C)N2 [Compound 3-4] | 71 |
| COc1cc(OS(=O)(=O)CCCN(C)CCN(C)C)ccc1-c1ccc2c(c1COc1cc(F)ccc1C)N(C)C(=O)C(C)(C)N2 [Compound 3-5, 7-[4-[3-[N-(2-Dimethylaminoethyl)-N-methylamino]propylsulfonyloxy]-2-methoxyphenyl]-8-(5-fluoro-2-methylphenoxymethyl)-1,3,3-trimethyl-3,4-dihydro-1H-quinoxalin-2-one] | 100 |
| CNCCN(C)CCCS(=O)(=O)Oc1ccc(-c2ccc3c(c2COc2cc(F)ccc2C)N(C)C(=O)C(C)(C)N3)c(OC)c1 [Compound 3-6, 8-(5-Fluoro-2-methylphenoxymethyl)-7-[2-methoxy-4-[3-[N-(2-methylaminoethyl)-N-methylamino]propylsulfonyloxy]phenyl]-1,3,3-trimethyl-3,4-dihydro-1H-quinoxalin-2-one] | 99 |
